# From PubChem BioAssay (NCI)
#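 Growth conditions: 96-well plates. Treatment: test compound, 48 hours, 5 concentrations. Analysis: linear interpolation between bracketing concentrations; unreached endpoints set to highest concentration. The concentration for 50% growth inhibition is given as GI50. Definition used: TGI = concentration required for complete inhibition of growth.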
# Test system: K-562 leukemia
# Assay: inhibition of tumour cell growth, NCI panel, 48 h
SMILES,TGI [µM],GI50 [µM]
Nc1ncn(C2CC(O)C(CO)O2)c(=O)n1 (configuration not stated),> 332,–
COc1ccc(CNc2nc3cc(C(F)(F)F)ccc3nc2C)cc1OC,> 100,–
N#CCc1ccc(C(C#N)/C(CCCC(=O)Nc2cccc([N+](=O)[O-])c2)=N/NC(N)=S)cc1 (configuration not stated),> 100,–
COc1cc2c3c(n(C)c(=O)c2cc1OC)-c1cc2c(cc1/C3=C\CNCCCN)OCO2,–,0.168
O=C(/C=C\n1cnc(-c2cc(C(F)(F)F)cc(C(F)(F)F)c2)n1)NNc1cnccn1,> 38.3,0.0594
COc1ccc(-c2nnc(COc3ccc(NC(=O)Nc4ccc(Cl)c(C(F)(F)F)c4)cc3F)o2)cc1,53.9,3.31
CCN(CC)CCCC(C)Nc1cnc(C(=O)Nc2cccc3ccc(OC)nc23)cn1 (configuration not stated),6.2,1.8
N#C/C(=C\c1cc2ccccc2c2ccccc12)c1ccccc1,13.7,–
COC(=O)C12C3C4C1C1C2C3C41NC(=O)c1csc([C@@H](C[C@H](C(C)C)N(C)C(=O)[C@@H](NC(=O)[C@H]2CCCCN2C)C2CC2)OC(C)=O)n1 (some centres not stated),> 33.3,0.00569
CS(=O)(=O)c1cc(=O)c2ccccc2s1,3,–
CSc1nc2cc(S(=O)(=O)N3CCCCC3)ccc2s1,> 100,–
Nc1nc(-c2cccc(Cl)c2)c(-c2ccc3ncccc3n2)s1,> 25,> 25
Cc1ccc2c(c1)CN(C(=O)CCC(=O)OCc1ccccc1)c1ccc(C)cc1CN2C(=O)CCC(=O)OCc1ccccc1,> 100,–
O=c1[nH]c(=O)n(C2OC(CO)C(O)C(O)C2O)cc1F (configuration not stated),> 100,–
c1cc[c]([Pb]([c]2ccccc2)[c]2ccccc2)cc1,61.4,11
CCCCN1CSC(=S)N(Cc2ccccc2)C1,> 100,–

# Test system: NCI-H460 lung
# Assay: inhibition of tumour cell growth, NCI panel, 48 h
SMILES,GI50 [µM],TGI [µM]
C=C1C(=O)O[C@H]2[C@H]1CC/C(COC(=O)c1cc3ccccc3s1)=C\CC[C@@]1(C)O[C@@H]21,2.2,5.55
Fc1ccc(-c2nn3ncccc3c2-c2ccnc(Nc3ccc4c(c3)OCCO4)n2)cc1,5.64,> 23.3
CC1(C)N=C(N)N=C(N)N1c1ccc(OCc2ccc(S(=O)(=O)F)c(Cl)c2)c(Cl)c1,0.426,> 100
CO[C@H]1C=C[C@@]23c4cc5c(cc4CO[C@]2(O)CN(C)[C@H]3C1)OCO5,–,> 100
CC(C)N1CN(C(C(=O)N[C@@H]2C(=O)N3C2SC(C)(C)C3C(=O)O)c2ccccc2)CSC1=S (some centres not stated),–,> 100
COC(=O)c1c(C)[nH]c(/C=C2\N=C(c3ccc[nH]3)C=C2OC)c1C,0.147,> 100
COc1cc2c3c(n(CCCCOC(=O)C(Cl)(Cl)Cl)c(=O)c2cc1OC)-c1cc2c(cc1C3=O)OCO2,2.41,> 100
CCOC(=O)c1c(C)nc2c(c1N)/C(=C/c1ccc(OC)cc1)C(=O)N2Cc1ccc(F)cc1,0.257,0.744
CCCCOC(=O)NC(=O)c1cn(C2CCCCC2)c(=O)[nH]c1=O,–,> 100
COc1cc(NS(=O)(=O)c2ccc(-c3cnc(C4CC4)o3)cc2)ccc1F,0.447,14.4
COc1ccccc1Cn1cc2c(c1-c1ccccc1)CCc1cnoc1-2,2.65,18.1
COc1cc2c(c(OC)c1OC)C(=O)[C@@H]1c3ccc([N+](=O)[O-])cc3C(=O)N(CCCBr)[C@H]21,8.15,62.2
O=C1OC(c2ccco2)=N/C1=C\c1cccc([N+](=O)[O-])c1,–,> 100
Nc1ncn(C2CC(O)C(CO)O2)c(=O)n1 (configuration not stated),–,> 375
COc1ccc(CNc2nc3cc(C(F)(F)F)ccc3nc2C)cc1OC,–,> 100
N#CCc1ccc(C(C#N)/C(CCCC(=O)Nc2cccc([N+](=O)[O-])c2)=N/NC(N)=S)cc1 (configuration not stated),–,> 100
COc1cc2c3c(n(C)c(=O)c2cc1OC)-c1cc2c(cc1/C3=C\CNCCCN)OCO2,0.75,12.9
O=C(/C=C\n1cnc(-c2cc(C(F)(F)F)cc(C(F)(F)F)c2)n1)NNc1cnccn1,0.037,3.14
COc1ccc(-c2nnc(COc3ccc(NC(=O)Nc4ccc(Cl)c(C(F)(F)F)c4)cc3F)o2)cc1,2.26,5.56
CCN(CC)CCCC(C)Nc1cnc(C(=O)Nc2cccc3ccc(OC)nc23)cn1 (configuration not stated),2.12,4.66
N#C/C(=C\c1cc2ccccc2c2ccccc12)c1ccccc1,–,> 36.1
COC(=O)C12C3C4C1C1C2C3C41NC(=O)c1csc([C@@H](C[C@H](C(C)C)N(C)C(=O)[C@@H](NC(=O)[C@H]2CCCCN2C)C2CC2)OC(C)=O)n1 (some centres not stated),0.0489,> 33.3
CS(=O)(=O)c1cc(=O)c2ccccc2s1,–,41.2
CSc1nc2cc(S(=O)(=O)N3CCCCC3)ccc2s1,–,> 100
Nc1nc(-c2cccc(Cl)c2)c(-c2ccc3ncccc3n2)s1,> 25,> 25
Cc1ccc2c(c1)CN(C(=O)CCC(=O)OCc1ccccc1)c1ccc(C)cc1CN2C(=O)CCC(=O)OCc1ccccc1,–,> 100
O=c1[nH]c(=O)n(C2OC(CO)C(O)C(O)C2O)cc1F (configuration not stated),–,> 100
c1cc[c]([Pb]([c]2ccccc2)[c]2ccccc2)cc1,20.2,> 100
CCCCN1CSC(=S)N(Cc2ccccc2)C1,–,> 94.3

# Test system: SK-OV-3 ovarian
# Assay: inhibition of tumour cell growth, NCI panel, 48 h
SMILES,GI50 [µM],TGI [µM]
C=C1C(=O)O[C@H]2[C@H]1CC/C(COC(=O)c1cc3ccccc3s1)=C\CC[C@@]1(C)O[C@@H]21,13.9,26.8
Fc1ccc(-c2nn3ncccc3c2-c2ccnc(Nc3ccc4c(c3)OCCO4)n2)cc1,1.23,> 25
CC1(C)N=C(N)N=C(N)N1c1ccc(OCc2ccc(S(=O)(=O)F)c(Cl)c2)c(Cl)c1,> 100,> 100
CO[C@H]1C=C[C@@]23c4cc5c(cc4CO[C@]2(O)CN(C)[C@H]3C1)OCO5,–,> 100
CC(C)N1CN(C(C(=O)N[C@@H]2C(=O)N3C2SC(C)(C)C3C(=O)O)c2ccccc2)CSC1=S (some centres not stated),–,> 100
COC(=O)c1c(C)[nH]c(/C=C2\N=C(c3ccc[nH]3)C=C2OC)c1C,2.69,> 100
COc1cc2c3c(n(CCCCOC(=O)C(Cl)(Cl)Cl)c(=O)c2cc1OC)-c1cc2c(cc1C3=O)OCO2,> 100,> 100
CCOC(=O)c1c(C)nc2c(c1N)/C(=C/c1ccc(OC)cc1)C(=O)N2Cc1ccc(F)cc1,0.692,6.85
CCCCOC(=O)NC(=O)c1cn(C2CCCCC2)c(=O)[nH]c1=O,–,41.4
COc1cc(NS(=O)(=O)c2ccc(-c3cnc(C4CC4)o3)cc2)ccc1F,0.606,34.6
COc1ccccc1Cn1cc2c(c1-c1ccccc1)CCc1cnoc1-2,3.5,> 100
COc1cc2c(c(OC)c1OC)C(=O)[C@@H]1c3ccc([N+](=O)[O-])cc3C(=O)N(CCCBr)[C@H]21,22.3,74.5
O=C1OC(c2ccco2)=N/C1=C\c1cccc([N+](=O)[O-])c1,–,> 100
Nc1ncn(C2CC(O)C(CO)O2)c(=O)n1 (configuration not stated),–,182
COc1ccc(CNc2nc3cc(C(F)(F)F)ccc3nc2C)cc1OC,–,> 100
N#CCc1ccc(C(C#N)/C(CCCC(=O)Nc2cccc([N+](=O)[O-])c2)=N/NC(N)=S)cc1 (configuration not stated),–,> 100
COc1cc2c3c(n(C)c(=O)c2cc1OC)-c1cc2c(cc1/C3=C\CNCCCN)OCO2,1.26,> 88.2
O=C(/C=C\n1cnc(-c2cc(C(F)(F)F)cc(C(F)(F)F)c2)n1)NNc1cnccn1,0.643,25.3
COc1ccc(-c2nnc(COc3ccc(NC(=O)Nc4ccc(Cl)c(C(F)(F)F)c4)cc3F)o2)cc1,5.86,31.5
CCN(CC)CCCC(C)Nc1cnc(C(=O)Nc2cccc3ccc(OC)nc23)cn1 (configuration not stated),15,28.4
N#C/C(=C\c1cc2ccccc2c2ccccc12)c1ccccc1,–,39
COC(=O)C12C3C4C1C1C2C3C41NC(=O)c1csc([C@@H](C[C@H](C(C)C)N(C)C(=O)[C@@H](NC(=O)[C@H]2CCCCN2C)C2CC2)OC(C)=O)n1 (some centres not stated),0.148,> 33.3
CS(=O)(=O)c1cc(=O)c2ccccc2s1,–,32.3
CSc1nc2cc(S(=O)(=O)N3CCCCC3)ccc2s1,–,> 100
Nc1nc(-c2cccc(Cl)c2)c(-c2ccc3ncccc3n2)s1,> 25,> 25
Cc1ccc2c(c1)CN(C(=O)CCC(=O)OCc1ccccc1)c1ccc(C)cc1CN2C(=O)CCC(=O)OCc1ccccc1,–,> 100
O=c1[nH]c(=O)n(C2OC(CO)C(O)C(O)C2O)cc1F (configuration not stated),–,> 100
c1cc[c]([Pb]([c]2ccccc2)[c]2ccccc2)cc1,11.2,38.2
CCCCN1CSC(=S)N(Cc2ccccc2)C1,–,> 100
